Data taken from PMC8799717, “Pharmacological targeting PIKfyve and tubulin as an effective treatment strategy for double-hit lymphoma” (Cell Death Discovery, 2022).

How the values were obtained:
Assay in all cases: biochemical
Parameters in all cases: KINOMEscan active-site-directed competition binding panel, 468 kinases, percent of DMSO control at 1 uM
Details in all cases: KINOMEscan binding, percent of DMSO control; read-out: Ctrl%
AAK1 = AAK1 (Homo sapiens, UniProt Q2M2I8)
AMPK-alpha2 = target: T1, AMPK-alpha2 (Homo sapiens, UniProt P54646)
T1 construct: gene PRKAA2

BRSK1 = BRSK1 (Homo sapiens, UniProt Q8TDC3)
BUB1 = BUB1 (Homo sapiens, UniProt O43683)
CAMK2B = CAMK2B (Homo sapiens, UniProt Q13554)
CAMK2D = CAMK2D (Homo sapiens, UniProt Q13557)
CSF1R-autoinhibited = CSF1R-autoinhibited (Homo sapiens, UniProt P07333)
FLT3 = FLT3 (Homo sapiens, UniProt P36888)
GAK = GAK (Homo sapiens, UniProt O14976)
LIMK1 = LIMK1 (Homo sapiens, UniProt P53667)
LYN = LYN (Homo sapiens, UniProt P07948)
MAPKAPK5 = MAPKAPK5 (Homo sapiens, UniProt Q8IW41)
MELK = MELK (Homo sapiens, UniProt Q14680)
PIK4CB = target: T2, PIK4CB (Homo sapiens, UniProt Q9UBF8)
T2 construct: gene PI4KB

PLK1 = PLK1 (Homo sapiens, UniProt P53350)
PRKG1 = PRKG1 (Homo sapiens, UniProt Q13976)
PRKX = PRKX (Homo sapiens, UniProt P51817)
RIOK1 = RIOK1 (Homo sapiens, UniProt Q9BRS2)
ROCK1 = ROCK1 (Homo sapiens, UniProt Q13464)
[1] = target: T3, RPS6KA4(Kin.Dom.2-C-terminal) (Homo sapiens, UniProt O75676)
T3 construct: Kin.Dom.2-C-terminal

SRPK1 = SRPK1 (Homo sapiens, UniProt Q96SB4)
SRPK3 = SRPK3 (Homo sapiens, UniProt Q9UPE1)
TAOK2 = TAOK2 (Homo sapiens, UniProt Q9UL54)
[2] = target: T4, TYK2(JH2domain-pseudokinase) (Homo sapiens, UniProt P29597)
T4 construct: JH2domain-pseudokinase

Sequence of PRKG1 (Q13976 whole entry): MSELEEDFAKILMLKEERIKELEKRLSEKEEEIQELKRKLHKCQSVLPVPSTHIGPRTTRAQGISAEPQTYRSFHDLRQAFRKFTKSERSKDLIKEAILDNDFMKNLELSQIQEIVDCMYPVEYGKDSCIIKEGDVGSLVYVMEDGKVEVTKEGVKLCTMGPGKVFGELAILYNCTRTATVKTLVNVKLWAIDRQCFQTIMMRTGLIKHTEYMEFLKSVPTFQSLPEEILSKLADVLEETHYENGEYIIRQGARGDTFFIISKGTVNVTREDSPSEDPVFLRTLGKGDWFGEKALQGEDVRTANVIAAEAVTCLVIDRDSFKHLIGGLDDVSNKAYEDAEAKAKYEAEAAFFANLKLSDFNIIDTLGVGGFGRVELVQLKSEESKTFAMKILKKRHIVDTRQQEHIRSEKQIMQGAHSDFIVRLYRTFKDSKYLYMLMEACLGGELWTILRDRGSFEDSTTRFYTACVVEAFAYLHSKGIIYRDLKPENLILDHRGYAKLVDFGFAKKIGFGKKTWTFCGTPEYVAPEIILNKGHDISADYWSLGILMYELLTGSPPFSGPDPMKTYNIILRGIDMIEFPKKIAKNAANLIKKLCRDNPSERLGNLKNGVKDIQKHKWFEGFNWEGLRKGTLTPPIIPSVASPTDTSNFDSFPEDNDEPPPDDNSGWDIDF
T3 sequence (O75676 whole entry): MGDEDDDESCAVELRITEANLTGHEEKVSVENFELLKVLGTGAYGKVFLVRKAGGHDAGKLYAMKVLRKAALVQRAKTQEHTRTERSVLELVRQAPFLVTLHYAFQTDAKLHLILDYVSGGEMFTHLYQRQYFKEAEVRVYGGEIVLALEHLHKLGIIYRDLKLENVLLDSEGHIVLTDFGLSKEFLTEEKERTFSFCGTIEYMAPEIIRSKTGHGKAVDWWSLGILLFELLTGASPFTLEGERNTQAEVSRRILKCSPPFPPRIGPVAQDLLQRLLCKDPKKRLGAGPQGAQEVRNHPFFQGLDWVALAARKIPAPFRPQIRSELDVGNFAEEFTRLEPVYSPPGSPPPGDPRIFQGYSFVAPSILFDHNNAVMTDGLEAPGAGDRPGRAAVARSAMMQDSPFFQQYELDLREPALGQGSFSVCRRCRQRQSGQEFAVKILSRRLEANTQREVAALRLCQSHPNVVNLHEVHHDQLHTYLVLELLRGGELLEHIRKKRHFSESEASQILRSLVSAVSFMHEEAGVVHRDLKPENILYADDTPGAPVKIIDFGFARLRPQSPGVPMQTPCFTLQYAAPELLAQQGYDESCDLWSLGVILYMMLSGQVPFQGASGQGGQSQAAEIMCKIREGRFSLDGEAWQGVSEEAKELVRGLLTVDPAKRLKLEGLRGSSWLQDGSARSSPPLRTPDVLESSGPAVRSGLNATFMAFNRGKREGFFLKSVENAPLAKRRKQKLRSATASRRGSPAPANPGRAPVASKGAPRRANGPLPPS
Sequence of MELK (Q14680 whole entry): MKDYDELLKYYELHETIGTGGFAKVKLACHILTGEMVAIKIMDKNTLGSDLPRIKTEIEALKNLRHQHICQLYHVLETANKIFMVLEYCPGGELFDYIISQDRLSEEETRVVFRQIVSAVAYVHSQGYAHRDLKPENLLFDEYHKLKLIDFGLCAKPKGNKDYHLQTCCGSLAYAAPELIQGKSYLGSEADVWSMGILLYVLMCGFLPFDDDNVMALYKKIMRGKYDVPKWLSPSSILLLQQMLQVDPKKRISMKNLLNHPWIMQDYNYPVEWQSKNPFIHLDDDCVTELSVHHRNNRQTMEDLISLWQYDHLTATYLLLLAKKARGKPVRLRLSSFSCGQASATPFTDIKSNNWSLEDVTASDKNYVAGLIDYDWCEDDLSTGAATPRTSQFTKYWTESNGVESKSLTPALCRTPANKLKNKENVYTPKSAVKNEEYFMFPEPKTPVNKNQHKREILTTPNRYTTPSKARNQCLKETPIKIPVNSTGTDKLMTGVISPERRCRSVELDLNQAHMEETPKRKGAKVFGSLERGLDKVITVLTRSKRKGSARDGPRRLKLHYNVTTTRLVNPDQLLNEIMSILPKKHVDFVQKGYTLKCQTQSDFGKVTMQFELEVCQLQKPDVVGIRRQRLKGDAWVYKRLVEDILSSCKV
Sequence of CSF1R-autoinhibited (P07333 whole entry): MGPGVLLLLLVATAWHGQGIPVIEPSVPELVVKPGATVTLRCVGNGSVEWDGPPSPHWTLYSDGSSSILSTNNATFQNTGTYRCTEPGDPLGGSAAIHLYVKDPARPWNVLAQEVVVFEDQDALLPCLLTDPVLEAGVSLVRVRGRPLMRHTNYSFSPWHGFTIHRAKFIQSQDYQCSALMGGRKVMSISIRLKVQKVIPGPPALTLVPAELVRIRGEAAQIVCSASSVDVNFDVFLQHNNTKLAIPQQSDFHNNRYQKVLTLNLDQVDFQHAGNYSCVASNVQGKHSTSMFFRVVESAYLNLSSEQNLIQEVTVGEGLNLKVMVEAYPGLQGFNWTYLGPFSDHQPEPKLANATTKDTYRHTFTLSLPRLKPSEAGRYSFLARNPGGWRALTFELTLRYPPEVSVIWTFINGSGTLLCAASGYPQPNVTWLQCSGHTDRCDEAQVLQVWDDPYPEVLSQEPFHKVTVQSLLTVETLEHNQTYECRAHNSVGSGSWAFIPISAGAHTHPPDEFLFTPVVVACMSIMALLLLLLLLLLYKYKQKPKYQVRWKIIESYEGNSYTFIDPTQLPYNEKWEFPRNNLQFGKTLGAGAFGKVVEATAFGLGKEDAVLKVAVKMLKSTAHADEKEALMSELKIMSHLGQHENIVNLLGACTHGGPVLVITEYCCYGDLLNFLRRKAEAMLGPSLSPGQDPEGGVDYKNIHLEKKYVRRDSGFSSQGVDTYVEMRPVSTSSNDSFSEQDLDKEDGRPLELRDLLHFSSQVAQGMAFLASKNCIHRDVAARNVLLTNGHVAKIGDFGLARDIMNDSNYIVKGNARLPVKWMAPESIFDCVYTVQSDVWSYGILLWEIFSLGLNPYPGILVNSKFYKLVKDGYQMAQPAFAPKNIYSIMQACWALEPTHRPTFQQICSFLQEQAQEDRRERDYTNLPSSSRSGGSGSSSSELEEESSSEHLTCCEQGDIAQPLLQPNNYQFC
Sequence of AAK1 (Q2M2I8 whole entry): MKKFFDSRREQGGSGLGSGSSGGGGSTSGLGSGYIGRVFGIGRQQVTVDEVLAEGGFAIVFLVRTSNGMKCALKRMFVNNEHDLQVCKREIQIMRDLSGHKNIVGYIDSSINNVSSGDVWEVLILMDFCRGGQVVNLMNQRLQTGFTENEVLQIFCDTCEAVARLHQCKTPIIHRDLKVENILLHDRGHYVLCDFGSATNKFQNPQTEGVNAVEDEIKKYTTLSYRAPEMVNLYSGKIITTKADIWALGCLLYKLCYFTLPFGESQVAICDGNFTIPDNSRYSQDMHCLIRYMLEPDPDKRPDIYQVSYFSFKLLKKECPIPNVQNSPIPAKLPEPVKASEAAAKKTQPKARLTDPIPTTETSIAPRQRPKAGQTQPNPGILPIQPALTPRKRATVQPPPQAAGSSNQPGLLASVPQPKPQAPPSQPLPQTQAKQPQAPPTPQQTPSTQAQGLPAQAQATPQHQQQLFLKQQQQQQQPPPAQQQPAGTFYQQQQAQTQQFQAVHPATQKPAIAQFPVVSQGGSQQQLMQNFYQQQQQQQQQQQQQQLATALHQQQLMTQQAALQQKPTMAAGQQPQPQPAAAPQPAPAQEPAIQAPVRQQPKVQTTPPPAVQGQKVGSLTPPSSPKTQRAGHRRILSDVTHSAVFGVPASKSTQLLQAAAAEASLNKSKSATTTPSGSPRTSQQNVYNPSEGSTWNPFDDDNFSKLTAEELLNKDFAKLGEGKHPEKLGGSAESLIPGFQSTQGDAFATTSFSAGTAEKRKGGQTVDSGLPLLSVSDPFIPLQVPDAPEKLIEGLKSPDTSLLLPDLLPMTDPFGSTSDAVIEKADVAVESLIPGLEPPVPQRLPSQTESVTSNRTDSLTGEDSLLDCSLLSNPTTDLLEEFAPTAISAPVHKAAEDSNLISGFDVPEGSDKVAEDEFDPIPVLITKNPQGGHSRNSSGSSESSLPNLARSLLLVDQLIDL
Sequence of RIOK1 (Q9BRS2 whole entry): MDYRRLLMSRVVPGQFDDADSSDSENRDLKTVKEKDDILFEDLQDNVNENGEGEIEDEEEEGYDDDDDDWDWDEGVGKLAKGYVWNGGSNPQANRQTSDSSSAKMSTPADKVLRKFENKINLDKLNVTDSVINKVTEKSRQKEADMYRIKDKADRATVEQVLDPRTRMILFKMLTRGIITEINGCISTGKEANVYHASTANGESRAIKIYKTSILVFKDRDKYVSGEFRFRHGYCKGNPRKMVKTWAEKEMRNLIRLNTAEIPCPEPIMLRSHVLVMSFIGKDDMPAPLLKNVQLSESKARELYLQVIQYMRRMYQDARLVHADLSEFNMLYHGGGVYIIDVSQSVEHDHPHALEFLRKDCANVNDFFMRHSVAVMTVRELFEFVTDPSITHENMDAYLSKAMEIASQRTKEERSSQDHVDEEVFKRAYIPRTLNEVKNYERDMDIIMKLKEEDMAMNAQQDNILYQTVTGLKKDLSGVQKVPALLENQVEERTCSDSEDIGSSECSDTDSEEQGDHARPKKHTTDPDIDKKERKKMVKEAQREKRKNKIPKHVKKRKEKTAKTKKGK
Sequence of MAPKAPK5 (Q8IW41 whole entry): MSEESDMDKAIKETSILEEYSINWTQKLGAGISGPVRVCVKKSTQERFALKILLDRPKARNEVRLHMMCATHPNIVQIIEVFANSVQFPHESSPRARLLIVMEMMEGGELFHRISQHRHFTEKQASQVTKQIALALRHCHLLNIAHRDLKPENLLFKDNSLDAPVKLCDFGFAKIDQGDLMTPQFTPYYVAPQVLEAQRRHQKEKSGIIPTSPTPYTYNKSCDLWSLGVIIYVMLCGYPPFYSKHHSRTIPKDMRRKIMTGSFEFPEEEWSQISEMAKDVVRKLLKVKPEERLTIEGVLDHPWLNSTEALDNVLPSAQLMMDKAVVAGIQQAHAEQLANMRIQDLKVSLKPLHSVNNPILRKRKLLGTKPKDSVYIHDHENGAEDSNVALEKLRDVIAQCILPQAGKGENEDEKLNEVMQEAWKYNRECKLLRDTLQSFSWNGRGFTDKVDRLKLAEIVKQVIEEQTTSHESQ

## Cc1ccc(NC(=O)c2cccc(C(F)(F)F)c2)cc1Nc1cc(-c2cccnc2)nc2[nH]ccc12 [HZX-02-059]
AAK1
  remaining binding at 1 µM: 87%
AMPK-alpha2
  remaining binding at 1 µM: 90%
BRSK1
  remaining binding at 1 µM: 97%
BUB1
  remaining binding at 1 µM: 100%
CAMK2B
  remaining binding at 1 µM: 94%
CAMK2D
  remaining binding at 1 µM: 100%
CSF1R-autoinhibited
  remaining binding at 1 µM: 93%
FLT3
  remaining binding at 1 µM: 91%
GAK
  remaining binding at 1 µM: 91%
LIMK1
  remaining binding at 1 µM: 72%
LYN
  remaining binding at 1 µM: 17%
MAPKAPK5
  remaining binding at 1 µM: 100%
MELK
  remaining binding at 1 µM: 96%
PIK4CB
  remaining binding at 1 µM: 78%
PLK1
  remaining binding at 1 µM: 100%
PRKG1
  remaining binding at 1 µM: 82%
PRKX
  remaining binding at 1 µM: 100%
RIOK1
  remaining binding at 1 µM: 98%
ROCK1
  remaining binding at 1 µM: 100%
[1]
  remaining binding at 1 µM: 97%
SRPK1
  remaining binding at 1 µM: 95%
SRPK3
  remaining binding at 1 µM: 93%
TAOK2
  remaining binding at 1 µM: 98%
[2]
  remaining binding at 1 µM: 92%
